Data published in patent US10717716B2, “1,3,4-oxadiazole derivative compounds as histone deacetylase 6 inhibitor, and the pharmaceutical composition comprising the same” (Chong Kun Dang Pharmaceutical Corp., priority 2015, dated 2020).

Target: T1, human recombinant HDAC6 (Homo sapiens, UniProt Q9UBN7)
T1 construct: purchased Calbiochem 382180
T1 sequence (Q9UBN7 1-1215): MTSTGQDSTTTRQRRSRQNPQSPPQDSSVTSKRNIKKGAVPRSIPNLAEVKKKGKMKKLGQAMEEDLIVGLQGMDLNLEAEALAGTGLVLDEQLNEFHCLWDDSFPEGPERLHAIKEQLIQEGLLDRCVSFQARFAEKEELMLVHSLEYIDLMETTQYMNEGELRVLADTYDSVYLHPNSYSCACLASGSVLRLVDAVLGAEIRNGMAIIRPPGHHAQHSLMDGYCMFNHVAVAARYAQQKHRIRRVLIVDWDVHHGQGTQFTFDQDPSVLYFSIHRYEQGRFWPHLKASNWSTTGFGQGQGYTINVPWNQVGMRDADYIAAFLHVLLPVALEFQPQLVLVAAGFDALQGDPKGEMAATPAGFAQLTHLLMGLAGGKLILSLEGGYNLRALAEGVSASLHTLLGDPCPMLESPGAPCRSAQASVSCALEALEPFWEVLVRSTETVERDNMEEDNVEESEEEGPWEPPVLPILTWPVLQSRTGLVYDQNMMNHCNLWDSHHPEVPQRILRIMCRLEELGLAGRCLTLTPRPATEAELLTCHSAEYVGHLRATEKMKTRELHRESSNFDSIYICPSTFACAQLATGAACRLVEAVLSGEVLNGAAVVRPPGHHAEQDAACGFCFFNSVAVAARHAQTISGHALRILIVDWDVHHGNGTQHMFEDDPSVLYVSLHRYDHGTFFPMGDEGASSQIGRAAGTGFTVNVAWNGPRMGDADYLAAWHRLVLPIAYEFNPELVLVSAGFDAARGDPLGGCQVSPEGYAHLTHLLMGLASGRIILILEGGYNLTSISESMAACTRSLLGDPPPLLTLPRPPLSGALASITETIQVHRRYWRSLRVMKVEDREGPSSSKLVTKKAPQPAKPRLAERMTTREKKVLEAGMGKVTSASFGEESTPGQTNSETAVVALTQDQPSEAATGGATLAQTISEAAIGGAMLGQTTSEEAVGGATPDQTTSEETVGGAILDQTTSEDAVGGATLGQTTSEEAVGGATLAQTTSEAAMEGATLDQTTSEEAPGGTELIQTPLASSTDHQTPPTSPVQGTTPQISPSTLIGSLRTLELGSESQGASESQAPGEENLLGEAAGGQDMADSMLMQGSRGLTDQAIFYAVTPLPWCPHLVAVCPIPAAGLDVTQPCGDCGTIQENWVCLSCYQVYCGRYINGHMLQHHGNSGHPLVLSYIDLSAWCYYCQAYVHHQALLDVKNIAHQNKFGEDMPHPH
Assay: HDAC6 enzyme activity inhibition assay (HDAC Fluorimetric Drug Discovery Kit)
Format: biochemical
Conditions: for HDAC6 selectivity (fold): HDAC6 over HDAC1; for IC50: human recombinant HDAC6, same protocol as HDAC1, read-out: HDAC6
Outline: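 Fluorimetric deacetylase assay: 5-fold serial compound dilutions, 0.3 μg recombinant human enzyme (HDAC1 or HDAC6, same protocol), 10 μM Fluor de Lys-SIRT1 substrate, 60 min at 30 °C. Signal developed 30 min, measured at 360/460 nm; IC50 values derived.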

HDAC6 selectivity (fold) | IC50 | Structure (SMILES)
30 fold | 334 nM | O=C(N1CCN(c2ccccn2)CC1)N(Cc1ccc(-c2nnc(C(F)(F)F)o2)cc1)c1ccccc1 [Compound 21403, N-phenyl-4-(pyridin-2-yl)-N-(4-(5-(trifluoromethyl)-1,3,4-oxadiazol-2-yl)benzyl)piperazine-1-carboxamide]
28 fold | 354 nM | O=C(N1CCOCC1)N(Cc1ccc(-c2nnc(C(F)(F)F)o2)cc1)c1cccc(C(F)(F)F)c1 [Compound 21405, N-(4-(5-(trifluoromethyl)-1,3,4-oxadiazol-2-yl)benzyl)-N-(3-(trifluoromethyl)phenyl)morpholine-4-carboxamide]
16 fold | 619 nM | O=C(N1CCOCC1)N(Cc1ccc(-c2nnc(C(F)(F)F)o2)cc1)c1ccc(C(F)(F)F)cc1 [Compound 21406, N-(4-(5-(trifluoromethyl)-1,3,4-oxadiazol-2-yl)benzyl)-N-(4-(trifluoromethyl)phenyl)morpholine-4-carboxamide]
71 fold | 140 nM | O=C(N1CCOCC1)N(Cc1ccc(-c2nnc(C(F)(F)F)o2)cc1)c1cccc(F)c1 [Compound 21407, N-(3-fluorophenyl)-N-(4-(5-(trifluoromethyl)-1,3,4-oxadiazol-2-yl)benzyl)morpholine-4-carboxamide]
14 fold | 706 nM | O=C(N1CCOCC1)N(Cc1ccc(-c2nnc(C(F)(F)F)o2)cc1)c1cccc(C(F)(F)F)n1 [Compound 21408, N-(4-(5-(trifluoromethyl)-1,3,4-oxadiazol-2-yl)benzyl)-N-(6-(trifluoromethyl)pyridin-2-yl)morpholine-4-carboxamide]
33 fold | 304 nM | O=C(N1CCS(=O)(=O)CC1)N(Cc1ccc(-c2nnc(C(F)(F)F)o2)cc1)c1ccccn1 [Compound 21409, N-(pyridin-2-yl)-N-(4-(5-(trifluoromethyl)-1,3,4-oxadiazol-2-yl)benzyl)thiomorpholine-4-carboxamide 1,1-dioxide]
12 fold | 840 nM | O=C(N1CCS(=O)(=O)CC1)N(Cc1ccc(-c2nnc(C(F)(F)F)o2)cc1Cl)c1ccccc1 [Compound 21410, N-(2-chloro-4-(5-(trifluoromethyl)-1,3,4-oxadiazol-2-yl)benzyl)-N-phenylthiomorpholine-4-carboxamide 1,1-dioxide]
5 fold | 2150 nM | O=C(N1CCS(=O)(=O)CC1)N(Cc1ccc(-c2nnc(C(F)F)o2)cc1Cl)c1ccccc1 [Compound 21411, N-(2-chloro-4-(5-(difluoromethyl)-1,3,4-oxadiazol-2-yl)benzyl)-N-phenylthiomorpholine-4-carboxamide 1,1-dioxide]
21 fold | 470 nM | O=C(N1CCS(=O)(=O)CC1)N(Cc1ccc(-c2nnc(C(F)(F)F)o2)cc1)c1ccc(C(F)(F)F)cc1 [Compound 21412, N-(4-(5-(trifluoromethyl)-1,3,4-oxadiazol-2-yl)benzyl)-N-(4-(trifluoromethyl)phenyl)thiomorpholine-4-carboxamide 1,1-dioxide]
41 fold | 246 nM | O=C(N1CCS(=O)(=O)CC1)N(Cc1ccc(-c2nnc(C(F)(F)F)o2)cc1)c1ccc(Br)cc1 [Compound 21413, N-(4-bromophenyl)-N-(4-(5-(trifluoromethyl)-1,3,4-oxadiazol-2-yl)benzyl)thiomorpholine-4-carboxamide 1,1-dioxide]
79 fold | 126 nM | O=C(N1CCOCC1)N(Cc1ccc(-c2nnc(C(F)(F)F)o2)cc1)c1ccc(F)cc1F [Compound 21414, N-(2,4-difluorophenyl)-N-(4-(5-(trifluoromethyl)-1,3,4-oxadiazol-2-yl)benzyl)morpholine-4-carboxamide]
33 fold | 299 nM | Cc1ccc(N(Cc2ccc(-c3nnc(C(F)(F)F)o3)cc2)C(=O)N2CCOCC2)c(F)c1 [Compound 21415, N-(2-fluoro-4-methylphenyl)-N-(4-(5-(trifluoromethyl)-1,3,4-oxadiazol-2-yl)benzyl)morpholine-4-carboxamide]
6 fold | 1590 nM | CC(C)(C)OC(=O)N1CC2(CCN(C(=O)N(Cc3ccc(-c4nnc(C(F)(F)F)o4)cc3)c3ccccc3)CC2)C1 [Compound 21416, Ten-butyl 7-(phenyl(4-(5-(trifluoromethyl)-1,3,4-oxadiazol-2-yl)benzyl)carbamoyl)-2,7-diazaspiro[3.5]nonane-2-carboxylate]
143 fold | 70 nM | O=C(N1CCC2(CC1)CNC2)N(Cc1ccc(-c2nnc(C(F)(F)F)o2)cc1)c1ccccc1 [Compound 21417, N-phenyl-N-(4-(5-(trifluoromethyl)-1,3,4-oxadiazol-2-yl)benzyl)-2,7-diazaspiro[3.5]nonane-7-carboxamide]
65 fold | 154 nM | CC(=O)N1CC2(CCN(C(=O)N(Cc3ccc(-c4nnc(C(F)(F)F)o4)cc3)c3ccccc3)CC2)C1 [Compound 21418, 2-Acetyl-N-phenyl-N-(4-(5-(trifluoromethyl)-1,3,4-oxadiazol-2-yl)benzyl)-2,7-diazaspiro[3.5]nonane-7-carboxamide]
130 fold | 77 nM | CS(=O)(=O)N1CC2(CCN(C(=O)N(Cc3ccc(-c4nnc(C(F)(F)F)o4)cc3)c3ccccc3)CC2)C1 [Compound 21419, 2-(Methylsulfonyl)-N-phenyl-N-(4-(5-(trifluoromethyl)-1,3,4-oxadiazol-2-yl)benzyl)-2,7-diazaspiro[3.5]nonane-7-carboxamide]
143 fold | 70 nM | CN1CC2(CCN(C(=O)N(Cc3ccc(-c4nnc(C(F)(F)F)o4)cc3)c3ccccc3)CC2)C1 [Compound 21420, 2-Methyl-N-phenyl-N-(4-(5-(trifluoromethyl)-1,3,4-oxadiazol-2-yl)benzyl)-2,7-diazaspiro[3.5]nonane-7-carboxamide]
149 fold | 67 nM | CCN1CC2(CCN(C(=O)N(Cc3ccc(-c4nnc(C(F)(F)F)o4)cc3)c3ccccc3)CC2)C1 [Compound 21421, 2-Ethyl-N-phenyl-N-(4-(5-(trifluoromethyl)-1,3,4-oxadiazol-2-yl)benzyl)-2,7-diazaspiro[3.5]nonane-7-carboxamide]
95 fold | 105 nM | CC(=O)N1CCCN(C(=O)N(Cc2ccc(-c3nnc(C(F)(F)F)o3)cc2)c2ccccc2)CC1 [Compound 21422, 4-Acetyl-N-phenyl-N-(4-(5-(trifluoromethyl)-1,3,4-oxadiazol-2-yl)benzyl)-1,4-diazepane-1-carboxamide]
377 fold | 26.5 nM | CN1CCCN(C(=O)N(Cc2ccc(-c3nnc(C(F)F)o3)cc2F)c2ccccc2)CC1 [Compound 21423, N-(4-(5-(difluoromethyl)-1,3,4-oxadiazol-2-yl)-2-fluorobenzyl)-4-methyl-N-phenyl-1,4-diazepane-1-carboxamide]
54 fold | 184 nM | O=C(N1CCOCC1)N(Cc1ccc(-c2nnc(C(F)(F)F)o2)cc1)c1ccccn1 [Compound 21424, N-(pyridin-2-yl)-N-(4-(5-(trifluoromethyl)-1,3,4-oxadiazol-2-yl)benzyl)morpholine-4-carboxamide]
77 fold | 130 nM | O=C(N1CCOCC1)N(Cc1ccc(-c2nnc(C(F)(F)F)o2)cc1)c1ncccn1 [Compound 21425, N-(pyrimidin-2-yl)-N-(4-(5-(trifluoromethyl)-1,3,4-oxadiazol-2-yl)benzyl)morpholine-4-carboxamide]

Structure (SMILES) | HDAC6 selectivity (fold) | IC50
CCOC(=O)CN1[C@H](C)CN(C(=O)N(Cc2ccc(-c3nnc(C(F)(F)F)o3)cc2)c2ccccc2)C[C@@H]1C [Compound 21404, Ethyl 2-((2S,6R)-2,6-dimethyl-4-(phenyl(4-(5-(trifluoromethyl)-1,3,4-oxadiazol-2-yl)benzyl)carbamoyl)piperazin-1-yl)acetate] | 40 fold | 247 nM
